{"source": "paper PMC10812672", "about": "“Short Antimicrobial Peptide Derived from the Venom Gland Transcriptome of Pamphobeteus verdolaga Increases Gentamicin Susceptibility of Multidrug-Resistant Klebsiella pneumoniae” (Antibiotics, 2023)", "tested_on": "Gram-positive and Gram-negative bacteria representative of the ESKAPE group", "type": "cell-based", "conditions": "average over Gram-positive and Gram-negative ATCC strains of the ESKAPE group", "procedure": "The nine AMPs identified in the initial screening were evaluated at concentrations between 1.56–200 µM, against E. coli ATCC® 25922, S. aureus ATCC® 29213, E. faecalis ATCC® 49532, P. aeruginosa ATCC® 9027, and K. pneumoniae ATCC® BAA-1705 (Supplementary Figures S2–S6). […] Only PvAMP66 and PvAMP172 reached the MBC for S. aureus at 50 µM and 100 µM, respectively (Table 2).\nThe evaluation of the antimicrobial activity of the peptides was conducted using the CLSI’s broth microdilution method for bacterial susceptibility testing. For the screening phase, peptides were evaluated at a single 30 μM concentration, in triplicate and in three independent assays, against the E. coli ATCC® 8739, E. coli ATCC® 25922, S. aureus ATCC® 6538, or S. aureus ATCC® 29213 reference USP and CLSI strains. […] Following this, the bacteria were suspended in Mueller-Hinton broth up to a concentration of approximately 1.50 × 10^8 CFU/mL, as measured by optical density at 600 nm between 0.06 to 0.11 (0.5 McFarland standard), in a Multiskan SkyHigh spectrophotometer (ThermoFisher Scientific, Waltham, MA, USA). […] The plate was incubated for 24 h at 37 °C (BE 500, Memmert GmbH, Büchenbach, Germany) and optical density was measured at 600 nm in a Multiskan SkyHigh spectrophotometer (ThermoFisher Scientific, Waltham, MI, USA). […]", "note": "Ends that are not written are not given here.", "data": [{"substance": "WKKIKKFF-NH2 [PvAMP66]", "values": [{"measurement": "average MIC", "result": 46.87, "unit": "µM"}]}]}
